According to ChEMBL document CHEMBL3352689 (J Med Chem, 2014):

Biological target: Collagenase 3 (Homo sapiens, UniProt P45452)
Test: Inhibition of human recombinant MMP13 using Cy3-PLGLK(Cy5Q)AR-NH2 as substrate after 40 mins by spectrofluorimetry

| SMILES | IC50 |
| --- | --- |
| COc1cccc(CNC(=O)c2nc3ccc(F)cc3c(=O)[nH]2)c1 | 11 nM |
| COc1cccc(CNC(=O)c2nc3ccc(C(F)(F)F)cc3c(=O)[nH]2)c1 | 97 nM |
| COc1cccc(CNC(=O)c2nc3ccc(OC(F)(F)F)cc3c(=O)[nH]2)c1 | 27 nM |
| COc1cccc(CNC(=O)c2nc3ccc(OCc4ccccc4)cc3c(=O)[nH]2)c1 | 110 nM |
| COc1cccc(CNC(=O)c2nc3ccc(S(C)(=O)=O)cc3c(=O)[nH]2)c1 | 23 nM |
| COc1cccc(CNC(=O)c2nc3ccc(-c4ccccc4)cc3c(=O)[nH]2)c1 | 9.8 nM |
| COc1cccc(CNC(=O)c2nc3cc(OC)ccc3c(=O)[nH]2)c1 | 2200 nM |
| COc1cccc(CNC(=O)c2nc3c(OC)cccc3c(=O)[nH]2)c1 | > 10000 nM |
| COc1cccc(CNC(=O)c2nc3cccc(OC)c3c(=O)[nH]2)c1 | 25 nM |

Now those with a lower IC50, led by results:

| IC50 | SMILES |
| --- | --- |
| 4 nM | COc1cccc(CNC(=O)c2nc3ccc(OC)cc3c(=O)[nH]2)c1 |
| 2.4 nM | CCOc1ccc2nc(C(=O)NCc3cccc(OC)c3)[nH]c(=O)c2c1 |
| 1.8 nM | COc1cccc(CNC(=O)c2nc3ccc(SC)cc3c(=O)[nH]2)c1 |
| 6.3 nM | COc1cccc(CNC(=O)c2nc3ccc(C#N)cc3c(=O)[nH]2)c1 |
| 5 nM | COc1cccc(CNC(=O)c2nc3cccc(F)c3c(=O)[nH]2)c1 |
| 8.6 nM | COc1cccc(CNC(=O)c2nc3cccc(C#N)c3c(=O)[nH]2)c1 |
| 2.2 nM | COc1cccc(CNC(=O)c2nc3cccc(-c4ccccc4)c3c(=O)[nH]2)c1 |
